From patent US20140221324A1, “COMPOSITION FOR THE REDUCTION OF DRIP LOSSES IN PORK” (DSM IP ASSETS B.V., priority 2008, published 2014)

What was measured:
Type in all cases: in vivo, pig (Large-White x Landrace)
[1] = tested on: ilio-spinalis (longissimus dorsi) muscle; assay: pH of the ilio-spinalis (longissimus dorsi) muscle at slaughter and after 24 h storage; conditions: for pH after 24 h / pH at slaughter: ilio-spinalis muscle, mean ± SD of 20 determinations; for pH after 24 h: after 24 hours storage at +4° C.; for pH at slaughter: measured immediately; for pH after 24 h, value in brackets relative to group A (100) / pH at slaughter, value in brackets relative to group A (100): index
Procedure: (§1) Fifty 28-d old Large-White x Landrace weaner piglets having an initial body weight of 7.9±0.74 kg were used. The animals were allocated into two equal groups (A and B) and housed in cages in sub-groups (two of 8 and one of 9 animals) in an environmentally controlled room. […] Room temperature was initially 27° C. and was lowered weekly by about 2° C. until 21-22° C. Environment humidity percentage throughout the experiment was 50%. The experiments were performed in the facilities of the Centre de Recherche en Nutrition Animate (CRNA), DSM Nutritional Products France, BP 170, 68305 Saint-Louis cedex, France. They have been performed according to the French legal regulations on experiments with live animals.
(§2) Each group of animals was fed either a basal diet with the addition of 2000 IU/kg of vitamin D3 (group A) or the basal diet, without vitamin D3, and supplemented with 50 μg/kg of 25-hydroxycholecalciferol (Rovimix® Hy•D® commercially available from DSM Nutritional Products) (group B).
(§3) At the end of the post-weaning phase the twenty heaviest animals of each group were used for the growing-fattening period. […] Room temperature was 21-22° C. and humidity percentage was 50%.
(§4) The pigs were fed for 87 days a diet supplemented either with 2000 IU/kg of vitamin D3 (group A, animals ingesting during the post-weaning phase 2000 U/kg) or with 50 μg/kg of 25-hydroxycholecalciferol (group B, animals ingesting during the post-weaning phase 50 μg/kg). The basal diet (Table 2) was formulated to meet the animals' requirements according to Henry et al. 1989 In: L'alimentation des animaux domestiques—pore, lapin, volailles INRA), 2ème édition, INRA, Paris, 49-76 and NRC, 1998. Nutrient requirements of swine, 10th revised edition, National Academic Press. Washington DC, U.S.A.
(§5) In one of the mid-carcass, the entire ilio-spinalis muscle (longissimus dorsi) was dissected. Each muscle was weighed and pH was measured immediately and after 24 hours storage at +4° C. The muscles were individually conditioned into inflated plastic bags for water recovery during storage. Percentage of drip loses from muscles was estimated by weight difference and water recovery.
(§6) Statistical treatment of the results involved the calculation of the mean and the standard deviation of the mean as well as a two-factor hierarchical analysis of variance at 95% confidence level.

growing-fattening pig [2] = assay: Carcass lean/fat ratio after long-term dietary supplementation of growing-fattening pigs; conditions: for carcasses' lean/fat ratio, value in brackets relative to group A (100): index, group A (2000 IU/kg D3) = 100; for carcasses' lean/fat ratio: pigs fed supplemented diet (2000 IU/kg D3 or 50 μg/kg 25-OH D3), mean ± SD of 20 determinations
Procedure: as §1, §2, §3, §4
In the second mid-carcass lean and fat were measured at three different points with a caliper square tool. Muscular depth was measured after dissection of the ilio-spinalis muscle (longissimus dorsi) at the level of the 4th dorsal vertebrae. The sub-cutaneous back fat deposition was measured at the levels of the 4th dorsal and lumbar vertebras. These measures were used to estimate the carcasses' lcan/fat ratio.
as §6

growing-fattening pig [3] = assay: Carcass cold yield after long-term dietary supplementation of growing-fattening pigs; conditions: for carcasses' cold yield, value in brackets relative to group A (100): index, group A (2000 IU/kg D3) = 100; for carcasses' cold yield: pigs fed supplemented diet (2000 IU/kg D3 or 50 μg/kg 25-OH D3), carcass weighed after 24 h at +4° C., mean ± SD of 20 determinations
Procedure: as §1, §2, §3, §4
At the end of the experiment, all animals were randomly divided into four different lots and assigned to one slaughter campaign: days 84th, 85th, 86th and 87th. Animals of each lot were fasted for 12 hours and weighed just before they were slaughtered after tranquilization and stunning. The carcasses were sawed longitudinally following the spinal canal and weighed after 24 hours storage at +4° C. to estimate the carcasses' cold yield.
as §6

[4] = tested on: ilio-spinalis (longissimus dorsi) muscle; assay: Drip losses of the ilio-spinalis (longissimus dorsi) muscle; conditions: for Drip loss by water recovery / Drip loss by weight difference: ilio-spinalis muscle, mean ± SD of 20 determinations; for Drip loss by water recovery: 24 h storage at +4° C. in plastic bags; for Drip loss by weight difference: 24 h storage at +4° C.; for Drip loss by water recovery, value in brackets relative to group A (100) / Drip loss by weight difference, value in brackets relative to group A (100): index
Procedure: as §1, §2, §3, §4, §5, §6

[5] = dietary supplementation vs. vitamin D3 control group

Row | SMILES | pH values immediately after slaughter and after 24 hours storage compared to control group (in words) ([1]; ilio-spinalis muscle segments) | pH after 24 h [1] | pH at slaughter [1] | pH after 24 h, value in brackets relative to group A (100) [1] | pH at slaughter, value in brackets relative to group A (100) [1] | effect on the lean/fat ratio of the carcasses (in words) (growing-fattening pig [2]; [5]) | carcasses' lean/fat ratio, value in brackets relative to group A (100) (growing-fattening pig [2]) | carcasses' lean/fat ratio (growing-fattening pig [2]) | effect on the cold yield of the carcasses (in words) (growing-fattening pig [3]; [5]) | carcasses' cold yield, value in brackets relative to group A (100) (growing-fattening pig [3]) | carcasses' cold yield (growing-fattening pig [3]) | Drip loss by water recovery [4] | Drip loss by weight difference [4] | Drip loss by water recovery, value in brackets relative to group A (100) [4] | Drip loss by weight difference, value in brackets relative to group A (100) [4] | mass lost from muscular segments (in words) ([4]; vs. control group) | water volumes recovered from muscular segments (in words) ([4]; vs. control group)
1 | C=C1CC[C@H](O)C/C1=C/C=C1\CCC[C@]2(C)[C@@H]([C@H](C)CCCC(C)(C)O)CC[C@@H]12 [25-OH D3, 25-hydroxycholecalciferol] | similar | 5.51 ± 0.04 | 5.89 ± 0.16 | (100) | (101) | no positive effects | (99) | 67.70 ± 2.99% | no positive effects | (99) | 81.11 ± 1.71 % of live weight | 0.45 ± 0.23% | 1.51 ± 0.28% | (58) | (78) | less mass was lost | clearly smaller water volumes were recovered
2 | C=C1CC[C@H](O)C/C1=C/C=C1\CCC[C@]2(C)[C@@H]([C@H](C)CCCC(C)C)CC[C@@H]12 [D3, vitamin D3] | – | 5.49 ± 0.05^(1) | 5.85 ± 0.21^(1) | (100) | (100) | – | (100) | 68.42 ± 2.26^(1) % | – | (100) | 81.85 ± 0.76^(1) % of live weight | 0.78 ± 0.74^(1) % | 1.94 ± 0.85^(1) % | (100) | (100) | – | –
